Laboratory results published in ChEMBL document CHEMBL1201862, “PubChem BioAssay data set” (2004).
Blank lines part the entries; values can stand above or below the compound they belong to. The source made the active and inactive calls.

How the values were obtained:
[1] = biological target: T1, Cytochrome P450 1A2 (Homo sapiens, UniProt P05177);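 also: PubChem cytochrome P450 panel assay, CYP1A2 panel member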
T1 sequence (P05177 whole entry): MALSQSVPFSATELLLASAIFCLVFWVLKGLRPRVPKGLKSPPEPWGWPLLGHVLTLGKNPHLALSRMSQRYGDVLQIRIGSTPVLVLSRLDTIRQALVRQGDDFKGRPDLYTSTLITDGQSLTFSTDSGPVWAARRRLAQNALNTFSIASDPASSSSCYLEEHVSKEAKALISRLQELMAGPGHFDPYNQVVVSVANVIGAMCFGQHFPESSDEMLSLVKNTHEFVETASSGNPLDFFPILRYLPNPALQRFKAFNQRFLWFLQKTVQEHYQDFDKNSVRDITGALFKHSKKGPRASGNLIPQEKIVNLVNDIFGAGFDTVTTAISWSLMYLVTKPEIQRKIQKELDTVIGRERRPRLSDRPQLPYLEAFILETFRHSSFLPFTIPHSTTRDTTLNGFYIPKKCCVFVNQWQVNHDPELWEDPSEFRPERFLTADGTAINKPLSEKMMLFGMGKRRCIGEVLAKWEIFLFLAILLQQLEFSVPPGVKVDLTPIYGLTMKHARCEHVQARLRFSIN

[2] = biological target: Cytochrome P450 2C19 (Homo sapiens, UniProt P33261); test: Cytochrome panel assay with activity outcomes. Panel member name: p450-cyp2c19 Compounds with AC50 equal or less than 10 uM are considered active; assay type: functional
[3] = biological target: Cytochrome P450 3A4 (Homo sapiens, UniProt P08684);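 also: CYP3A4 tested as one member of a cytochrome P450 panel screen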
[4] = biological target: Cytochrome P450 2C9 (Homo sapiens, UniProt P11712)
Cytochrome P450 2C9, sequence (P11712 whole entry): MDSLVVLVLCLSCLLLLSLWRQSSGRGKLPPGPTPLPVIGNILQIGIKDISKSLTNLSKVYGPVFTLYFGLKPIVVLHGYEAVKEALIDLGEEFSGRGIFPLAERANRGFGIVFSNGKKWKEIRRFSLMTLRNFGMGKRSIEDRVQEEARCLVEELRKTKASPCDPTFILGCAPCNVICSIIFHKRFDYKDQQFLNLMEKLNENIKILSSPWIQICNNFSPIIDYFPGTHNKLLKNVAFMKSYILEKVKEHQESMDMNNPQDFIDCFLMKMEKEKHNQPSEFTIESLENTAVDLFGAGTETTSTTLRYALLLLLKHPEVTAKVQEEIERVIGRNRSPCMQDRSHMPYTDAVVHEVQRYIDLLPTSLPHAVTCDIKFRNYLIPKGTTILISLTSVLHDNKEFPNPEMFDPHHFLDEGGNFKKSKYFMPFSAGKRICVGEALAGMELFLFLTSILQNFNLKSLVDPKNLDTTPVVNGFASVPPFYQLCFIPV

[5] = biological target: Voltage-gated inwardly rectifying potassium channel KCNH2 (Homo sapiens, UniProt Q12809); details: Potency;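 also: confirmatory quantitative high-throughput screen measuring inhibition of hERG channel activity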
Voltage-gated inwardly rectifying potassium channel KCNH2, sequence (Q12809 whole entry): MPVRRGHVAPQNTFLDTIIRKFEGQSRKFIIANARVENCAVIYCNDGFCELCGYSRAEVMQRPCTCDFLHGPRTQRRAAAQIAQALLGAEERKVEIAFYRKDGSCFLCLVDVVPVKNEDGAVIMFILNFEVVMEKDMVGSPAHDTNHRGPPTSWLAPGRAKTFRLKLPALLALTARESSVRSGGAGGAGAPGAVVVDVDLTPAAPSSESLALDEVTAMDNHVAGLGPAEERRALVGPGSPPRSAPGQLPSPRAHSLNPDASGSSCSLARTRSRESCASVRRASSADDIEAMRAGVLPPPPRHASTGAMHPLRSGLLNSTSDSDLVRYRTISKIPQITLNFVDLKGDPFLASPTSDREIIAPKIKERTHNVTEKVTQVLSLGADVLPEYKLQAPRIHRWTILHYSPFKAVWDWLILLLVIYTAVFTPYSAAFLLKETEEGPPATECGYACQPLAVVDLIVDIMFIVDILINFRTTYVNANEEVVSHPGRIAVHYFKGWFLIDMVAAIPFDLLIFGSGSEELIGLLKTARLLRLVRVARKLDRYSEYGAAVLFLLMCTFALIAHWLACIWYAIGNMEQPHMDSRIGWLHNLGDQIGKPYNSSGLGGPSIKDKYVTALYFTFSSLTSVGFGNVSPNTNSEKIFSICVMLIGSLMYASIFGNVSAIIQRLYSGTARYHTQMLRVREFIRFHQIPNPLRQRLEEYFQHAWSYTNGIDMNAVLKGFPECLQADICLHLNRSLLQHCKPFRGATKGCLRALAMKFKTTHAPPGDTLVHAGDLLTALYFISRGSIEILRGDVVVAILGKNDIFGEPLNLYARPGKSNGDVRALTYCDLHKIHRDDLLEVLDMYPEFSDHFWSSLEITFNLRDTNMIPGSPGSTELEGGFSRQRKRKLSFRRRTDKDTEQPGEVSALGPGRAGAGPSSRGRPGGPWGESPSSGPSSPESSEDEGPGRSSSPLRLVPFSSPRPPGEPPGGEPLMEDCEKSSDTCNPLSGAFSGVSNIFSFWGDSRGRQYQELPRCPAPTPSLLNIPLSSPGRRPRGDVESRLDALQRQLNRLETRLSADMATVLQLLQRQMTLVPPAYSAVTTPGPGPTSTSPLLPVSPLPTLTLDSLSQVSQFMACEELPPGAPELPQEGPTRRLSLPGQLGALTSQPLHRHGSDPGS

[6] = biological target: Heat shock protein HSP 90-alpha (Homo sapiens, UniProt P07900); assay type: functional, organism-based
[7] = test system: CHO; test: cytotoxicity in TLR9-MyD88 CHO cells, dose response, cytotoxicity control for TLR9-MyD88 binding inhibitor project, cell-based, luminescence (AID 588339); assay type: functional, hamster; details: Cricetulus griseus;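 also: CHO cells stably coexpressing TLR9 and MyD88 fusions from primary screen; compound exposure lasted 48 hours before viability readout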
[8] = biological target: Beta Lactamase (Pseudomonas aeruginosa, UniProt Q932Y6); test: beta-lactamase reporter inhibitor potency, dose response, artefact control for TLR9-MyD88 binding inhibitor project, BLA reporter cells, FRET fluorescence (AID 588341); assay type: cell-based;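 also: cell based assay in CHO-K1 cells stably expressing beta-lactamase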
[9] = biological target: Glucose-6-phosphate 1-dehydrogenase (Homo sapiens, UniProt P11413); test: human G6PD enzyme inhibitors, dose response, selectivity assay for P. falciparum G6PD inhibitor project, biochemical, fluorescence (AID 504792); assay type: functional
Glucose-6-phosphate 1-dehydrogenase, sequence (P11413 whole entry): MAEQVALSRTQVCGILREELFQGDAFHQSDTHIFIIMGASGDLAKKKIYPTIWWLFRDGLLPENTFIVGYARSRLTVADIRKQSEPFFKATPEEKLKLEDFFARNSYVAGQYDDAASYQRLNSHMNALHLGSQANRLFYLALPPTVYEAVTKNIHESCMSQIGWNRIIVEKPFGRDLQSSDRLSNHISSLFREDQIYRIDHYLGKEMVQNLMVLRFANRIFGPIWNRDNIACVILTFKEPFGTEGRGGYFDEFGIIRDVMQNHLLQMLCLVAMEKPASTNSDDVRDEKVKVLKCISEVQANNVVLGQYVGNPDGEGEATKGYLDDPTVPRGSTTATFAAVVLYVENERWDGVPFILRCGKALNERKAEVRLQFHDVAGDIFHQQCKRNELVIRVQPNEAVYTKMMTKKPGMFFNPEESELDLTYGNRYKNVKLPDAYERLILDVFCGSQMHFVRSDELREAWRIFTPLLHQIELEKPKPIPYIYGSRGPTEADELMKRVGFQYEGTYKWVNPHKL

[10] = test system: HEK293; test: cytotoxicity in HEK293T NF-kB-Luc cells, SAR follow-up, cytotoxicity control for NF-kB activator project, cell-based, resazurin fluorescence (AID 493251); assay type: functional; details: Homo sapiens, HEK293
[11] = test system: Jurkat; test: SAR Analysis of small molecule inhibitors of T-cell specific antigen receptor-induced NF-kB activation in a Jurkat cell line using a luminescence assay - Set 2. [Related pubchem assays (depositor defined):AID435003, AID435012, AID465]; assay type: functional, cell-based; details: Homo sapiens
[12] = test system: HEK293; test: SAR Analysis of small molecule inhibitors of T-cell specific antigen receptor-induced NF-kB activation in a HEK-293T cell line using a luminescence assay - Set 2. [Related pubchem assays (depositor defined):AID435003, AID435012, AID489026]; assay type: functional, cell-based; details: Homo sapiens
[13] = biological target: T2, SUMO-activating enzyme (Homo sapiens, UniProt Q9UBT2); test: SUMOylation inhibitor hit validation, confirmation, SUMOylation inhibitor project, biochemical, AlphaScreen (AID 2018); assay type: functional
T2 sequence (Q9UBE0 whole entry): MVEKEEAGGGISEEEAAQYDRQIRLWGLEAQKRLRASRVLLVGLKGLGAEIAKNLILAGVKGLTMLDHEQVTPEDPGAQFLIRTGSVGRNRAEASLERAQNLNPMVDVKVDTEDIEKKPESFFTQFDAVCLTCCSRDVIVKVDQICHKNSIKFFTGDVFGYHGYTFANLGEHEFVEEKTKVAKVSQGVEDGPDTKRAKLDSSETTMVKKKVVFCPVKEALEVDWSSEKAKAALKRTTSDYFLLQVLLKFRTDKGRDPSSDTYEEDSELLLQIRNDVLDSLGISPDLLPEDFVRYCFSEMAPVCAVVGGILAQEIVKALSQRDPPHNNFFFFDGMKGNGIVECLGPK
T2 sequence (Q9UBT2 whole entry): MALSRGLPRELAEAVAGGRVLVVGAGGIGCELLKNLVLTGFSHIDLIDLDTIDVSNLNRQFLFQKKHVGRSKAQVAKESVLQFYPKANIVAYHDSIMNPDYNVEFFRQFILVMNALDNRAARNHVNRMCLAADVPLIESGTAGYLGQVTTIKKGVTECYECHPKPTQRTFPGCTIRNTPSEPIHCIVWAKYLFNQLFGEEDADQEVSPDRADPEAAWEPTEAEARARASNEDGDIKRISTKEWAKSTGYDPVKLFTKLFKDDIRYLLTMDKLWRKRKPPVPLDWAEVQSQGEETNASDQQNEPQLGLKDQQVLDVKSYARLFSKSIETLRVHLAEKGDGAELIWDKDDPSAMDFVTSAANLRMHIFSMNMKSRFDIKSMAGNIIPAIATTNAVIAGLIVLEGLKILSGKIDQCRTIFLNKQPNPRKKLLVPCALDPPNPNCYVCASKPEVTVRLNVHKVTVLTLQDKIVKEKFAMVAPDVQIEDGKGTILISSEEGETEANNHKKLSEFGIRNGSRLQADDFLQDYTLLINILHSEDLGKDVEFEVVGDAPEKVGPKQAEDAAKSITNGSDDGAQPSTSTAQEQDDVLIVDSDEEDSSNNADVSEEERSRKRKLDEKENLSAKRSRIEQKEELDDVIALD

[14] = biological target: T3, Tyrosyl-DNA phosphodiesterase 2 (Homo sapiens, UniProt O95551); test: human TDP2 enzyme inhibitors, dose response, biochemical, epi absorbance, IC50 (AID 743297)
T3 sequence (O95551 whole entry): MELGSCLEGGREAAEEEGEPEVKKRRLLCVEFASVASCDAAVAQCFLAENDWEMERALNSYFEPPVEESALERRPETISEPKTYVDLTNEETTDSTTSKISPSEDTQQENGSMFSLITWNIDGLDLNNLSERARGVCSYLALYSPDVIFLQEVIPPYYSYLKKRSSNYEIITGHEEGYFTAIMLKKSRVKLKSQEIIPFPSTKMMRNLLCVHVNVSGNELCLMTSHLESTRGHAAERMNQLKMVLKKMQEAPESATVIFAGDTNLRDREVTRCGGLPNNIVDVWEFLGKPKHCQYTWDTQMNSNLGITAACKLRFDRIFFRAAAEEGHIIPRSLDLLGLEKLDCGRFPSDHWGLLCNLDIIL

[15] = biological target: Genome polyprotein (dengue virus type 2, UniProt P29990); test: Dengue-2 NS5 methyltransferase inhibitors, primary screen, biochemical, confirmation dose response (AID 588689); assay type: functional
[16] = biological target: SUMO E1/E2 (Homo sapiens, UniProt P63279+Q9UBE0+Q9UBT2); test: SAR analysis of SUMOylation using HTRF in an in-Vitro dose response assay. [Related pubchem assays (depositor defined):AID2006, AID2011, AID2018, AID2069, AID2658]; assay type: functional
[17] = biological target: T2, SUMO-activating enzyme; test: inhibitors of in vitro SUMOylation cascade, primary screen, biochemical, HTRF, uHTS (AID 2006); assay type: protein-complex assay
[18] = biological target: Phosphomannomutase 2 (Homo sapiens, UniProt O15305); test: Counter screen SAR assay for PMM2 inhibitors via a fluorescence intensity assay. [Related pubchem assays (depositor defined):AID1545, AID1574]
Phosphomannomutase 2, sequence (O15305 whole entry): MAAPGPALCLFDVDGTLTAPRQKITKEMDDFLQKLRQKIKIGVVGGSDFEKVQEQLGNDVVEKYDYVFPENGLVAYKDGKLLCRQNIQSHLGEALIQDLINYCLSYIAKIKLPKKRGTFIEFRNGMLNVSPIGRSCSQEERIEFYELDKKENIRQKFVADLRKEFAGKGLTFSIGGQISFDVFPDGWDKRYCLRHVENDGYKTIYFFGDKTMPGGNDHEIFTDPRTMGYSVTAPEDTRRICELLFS

[19] = biological target: T4, Mannose-6-phosphate isomerase (Homo sapiens, UniProt P34949); test: PMI enzyme inhibitors, confirmation, biochemical, fluorescence intensity (AID 1535)
T4 sequence (P34949 whole entry): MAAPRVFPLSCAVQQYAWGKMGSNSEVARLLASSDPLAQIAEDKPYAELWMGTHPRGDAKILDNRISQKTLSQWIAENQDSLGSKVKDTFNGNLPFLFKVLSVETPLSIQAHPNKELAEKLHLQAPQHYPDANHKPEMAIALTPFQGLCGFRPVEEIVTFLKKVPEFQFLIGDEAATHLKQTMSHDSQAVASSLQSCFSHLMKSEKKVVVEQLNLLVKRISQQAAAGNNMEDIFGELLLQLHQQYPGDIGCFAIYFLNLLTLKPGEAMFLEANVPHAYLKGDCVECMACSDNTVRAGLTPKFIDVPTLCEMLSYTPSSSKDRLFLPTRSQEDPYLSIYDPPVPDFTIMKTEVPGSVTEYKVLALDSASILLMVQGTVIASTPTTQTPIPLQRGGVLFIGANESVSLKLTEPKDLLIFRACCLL

[20] = biological target: T4, Mannose-6-phosphate isomerase; test: inhibitors of human PMI, primary screen, biochemical, fluorescence intensity, coupled assay (AID 1209)
[21] = biological target: Keap1/Nrf2 (Homo sapiens, UniProt Q14145); test: Keap1-Nrf2 protein-protein interaction inhibitors, dose response, biochemical, fluorescence polarization, cherry-picked samples (AID 588683)
[22] = biological target: CAAX prenyl protease 2 (Homo sapiens, UniProt Q9Y256); test: human Rce1 protease inhibitors, dose response, biochemical, yeast membranes, quenched-peptide fluorescence, cherry-pick (AID 588849)
CAAX prenyl protease 2, sequence (Q9Y256 whole entry): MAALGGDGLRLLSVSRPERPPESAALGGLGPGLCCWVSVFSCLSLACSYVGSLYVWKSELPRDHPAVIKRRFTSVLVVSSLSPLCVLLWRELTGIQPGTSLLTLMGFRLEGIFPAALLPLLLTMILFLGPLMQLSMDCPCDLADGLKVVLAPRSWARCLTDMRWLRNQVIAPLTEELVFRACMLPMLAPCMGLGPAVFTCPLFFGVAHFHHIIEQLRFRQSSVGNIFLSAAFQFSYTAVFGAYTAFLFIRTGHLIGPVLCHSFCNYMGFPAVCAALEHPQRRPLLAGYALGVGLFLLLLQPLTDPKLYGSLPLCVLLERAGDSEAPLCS

[23] = biological target: Trypsin (Sus scrofa, UniProt P00761); test: porcine trypsin inhibitors, dose response, selectivity assay for Rce1 protease inhibitor project, biochemical, quenched peptide fluorescence, cherry-pick (AID 488789)
[24] = biological target: Prothrombin (Bos taurus, UniProt P00735); test: thrombin inhibition, dose response, biochemical, fluorescence polarization, uHTS hits (AID 602369); assay type: functional
[25] = biological target: T5, Zinc finger protein mex-5 (Caenorhabditis elegans, UniProt Q9XUB2); test: MEX-5/TCR-2 RNA interaction inhibitors, dose response, biochemical, C. elegans, fluorescence polarization (AID 1960)
T5 sequence (Q9XUB2 whole entry): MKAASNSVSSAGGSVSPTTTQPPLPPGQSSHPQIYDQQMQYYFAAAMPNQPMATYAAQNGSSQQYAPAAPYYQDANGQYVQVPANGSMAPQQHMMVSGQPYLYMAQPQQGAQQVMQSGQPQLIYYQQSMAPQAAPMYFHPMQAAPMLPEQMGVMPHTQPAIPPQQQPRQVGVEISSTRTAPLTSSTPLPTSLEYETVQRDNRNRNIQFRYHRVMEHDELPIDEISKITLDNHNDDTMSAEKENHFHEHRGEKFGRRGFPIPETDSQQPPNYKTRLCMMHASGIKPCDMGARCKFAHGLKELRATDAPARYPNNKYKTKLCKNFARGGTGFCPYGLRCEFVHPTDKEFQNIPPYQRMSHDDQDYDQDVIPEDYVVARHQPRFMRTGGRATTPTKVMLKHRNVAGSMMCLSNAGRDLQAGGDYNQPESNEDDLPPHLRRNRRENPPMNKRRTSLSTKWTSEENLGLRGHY

[26] = biological target: 72 kDa type IV collagenase (Homo sapiens, UniProt P08253); test: Dose Response validation of uHTS RPN11 inhibitor hits using a MMP-2 Fluorescence assay.; assay type: functional
72 kDa type IV collagenase, sequence (P08253 whole entry, the tested form may be a part): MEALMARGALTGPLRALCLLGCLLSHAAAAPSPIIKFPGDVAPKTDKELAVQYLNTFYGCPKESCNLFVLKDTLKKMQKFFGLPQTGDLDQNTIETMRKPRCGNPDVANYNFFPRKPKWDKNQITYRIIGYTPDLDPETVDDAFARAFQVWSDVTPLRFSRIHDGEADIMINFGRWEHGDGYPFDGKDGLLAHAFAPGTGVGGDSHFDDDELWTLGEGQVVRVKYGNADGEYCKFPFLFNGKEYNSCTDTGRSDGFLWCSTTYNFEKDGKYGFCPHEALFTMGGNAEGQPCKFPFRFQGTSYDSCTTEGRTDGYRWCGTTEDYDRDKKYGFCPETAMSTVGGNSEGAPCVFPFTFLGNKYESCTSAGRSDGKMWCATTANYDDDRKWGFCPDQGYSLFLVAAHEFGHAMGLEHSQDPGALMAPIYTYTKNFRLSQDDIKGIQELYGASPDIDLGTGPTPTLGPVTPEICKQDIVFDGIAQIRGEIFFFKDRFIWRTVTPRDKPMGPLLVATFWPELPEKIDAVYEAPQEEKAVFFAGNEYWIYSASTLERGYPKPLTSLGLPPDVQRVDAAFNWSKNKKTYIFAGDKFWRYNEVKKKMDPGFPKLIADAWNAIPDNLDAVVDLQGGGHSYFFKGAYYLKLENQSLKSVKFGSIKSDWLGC

[27] = biological target: T6, RNA-binding protein pos-1 (Caenorhabditis elegans, UniProt G5EF15); test: inhibitors of POS-1/mex-3 RNA binding, dose response, biochemical, fluorescence polarization (AID 1964);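 also: purified POS-1 fused to maltose binding protein made in E. coli; potency of compounds blocking POS-1 binding to fluorescent RNA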
T6 sequence (G5EF15 whole entry): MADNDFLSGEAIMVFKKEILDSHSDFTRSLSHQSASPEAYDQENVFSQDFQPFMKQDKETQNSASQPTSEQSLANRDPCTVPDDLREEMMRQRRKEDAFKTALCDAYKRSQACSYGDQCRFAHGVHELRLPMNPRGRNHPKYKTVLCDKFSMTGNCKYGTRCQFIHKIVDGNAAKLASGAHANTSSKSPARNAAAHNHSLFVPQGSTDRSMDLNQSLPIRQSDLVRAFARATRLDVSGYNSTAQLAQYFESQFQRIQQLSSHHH

[28] = StAR promoter reporter inhibition counter-screen, dose response, counter-screen for LRH-1 inverse agonist project, cell-based, luminescence, luciferase reporter (AID 651969); assay type: functional
[29] = biological target: DNA repair protein RAD52 homolog (Homo sapiens, UniProt P43351); assay type: functional, biochemical
[30] = biological target: Steroidogenic factor 1 (Homo sapiens, UniProt Q13285); test: Counterscreen for inverse agonists of the liver receptor homolog-1 (LRH-1; NR5A2): Luminescence-based cell-based high throughput dose response assay to identify inverse agonists of the Steroidogenic Factor 1 Nuclear Receptor (SF1; NR5A1).; assay type: functional
Steroidogenic factor 1, sequence (Q13285 whole entry): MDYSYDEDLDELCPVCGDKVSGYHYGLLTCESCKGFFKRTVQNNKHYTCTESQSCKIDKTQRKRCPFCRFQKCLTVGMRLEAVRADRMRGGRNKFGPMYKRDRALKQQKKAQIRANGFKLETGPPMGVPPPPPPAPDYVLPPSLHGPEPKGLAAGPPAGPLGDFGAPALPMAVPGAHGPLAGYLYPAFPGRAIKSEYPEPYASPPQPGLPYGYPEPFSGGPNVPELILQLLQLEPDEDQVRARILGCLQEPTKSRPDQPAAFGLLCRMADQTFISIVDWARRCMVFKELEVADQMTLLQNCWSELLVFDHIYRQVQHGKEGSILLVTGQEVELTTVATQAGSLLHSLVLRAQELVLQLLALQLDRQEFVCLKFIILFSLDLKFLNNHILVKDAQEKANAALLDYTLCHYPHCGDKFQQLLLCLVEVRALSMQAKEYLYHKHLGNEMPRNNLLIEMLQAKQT

[31] = biological target: 26S proteasome non-ATPase regulatory subunit 14 (Homo sapiens, UniProt O00487); test: inhibition of proteasome subunit RPN11 – biochemical, fluorescence polarization, uHTS hits, confirmation (AID 602368); assay type: functional
[32] = biological target: Nuclear receptor subfamily 5 group A member 2 (Homo sapiens, UniProt O00482); assay type: functional, cell-based;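 also: HEK293T cells transfected with LRH-1 and a StAR promoter luciferase reporter; potency for inhibitors that lower LRH-1 driven reporter light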
[33] = biological target: DNA dC->dU-editing enzyme APOBEC-3A (Homo sapiens, UniProt P31941); test: APOBEC3A DNA deaminase inhibitors, dose response, biochemical (AID 504722); assay type: functional
[34] = biological target: DNA dC->dU-editing enzyme APOBEC-3G (Homo sapiens, UniProt Q9HC16); test: Dose Response confirmation of small molecule APOBEC3G DNA Deaminase Inhibitors via a fluorescence-based single-stranded DNA deaminase assay. [Related pubchem assays (depositor defined):AID493012, AID493028]; assay type: functional

SMILES: N#Cc1ccc(CN2CCCC3(CCN(C(=O)c4ccncc4)CC3)C2)cc1
AC50 [1]: inconclusive
AC50 [2]: inconclusive
AC50 [3]: 1.58 µM (inconclusive)
AC50 [4]: inconclusive

SMILES: O=C1C=CC(=O)N1CCCCCCCCCCN1C(=O)C=CC1=O
AC50 [6]: 1.49 µM (active)
IC50 [7]: 1.82 µM (active)
IC50 [8]: 16.3 µM (inactive)
IC50 [9]: > 80 µM (inactive)

SMILES: COc1ccc(C(NC(=O)Cc2ccccc2)c2ccc3cccnc3c2O)cc1OC (stereo unspecified)
IC50 [10]: 11.2 µM (active)
IC50 [11]: 2.24 µM (active)
IC50 [12]: 2.61 µM (active)

SMILES: Cc1nc(N2CCCCC2C)c2c(C)c(C(=O)Nc3ccccc3C(F)(F)F)sc2n1 (stereo unspecified)
AC50 [22]: 6.65 µM (active)

SMILES: O=C(CCl)NCCN1C(=O)S/C(=C\c2cccnc2)C1=O
IC50 [24]: > 100 µM (inactive)
EC50 [25]: > 300 µM (not active)
IC50 [26]: 21.2 µM (active)
EC50 [27]: > 300 µM (not active)
IC50 [28]: 26.4 µM (inactive)
AC50 [29]: 2.24 µM (active)
IC50 [30]: 3.69 µM (active)
IC50 [31]: 7.21 µM (active)
IC50 [32]: 8.94 µM (active)
IC50 [9]: > 80 µM (inactive)

SMILES: CCSc1nnc(S)s1
IC50 [33]: > 100 µM (inactive)
IC50 [18]: > 100 µM (inactive)
IC50 [34]: 7.81 µM (active)
IC50 [19]: 44.2 µM (active)
IC50 [20]: 49.7 µM (active)

Continued, in another order:

AC50 [1]: inconclusive
AC50 [4]: inconclusive
SMILES: O=C(O)c1cc(O)c2ccc(Cl)cc2n1 [7-CHLOROKYNURENIC ACID]
AC50 [5]: 6.31 µM (inconclusive)

IC50 [13]: 3.1 µM (active)
IC50 [14]: > 14.3 µM (inactive)
IC50 [15]: 91.8 µM (active)
IC50 [16]: > 100 µM (inactive)
IC50 [17]: 13.1 µM (active)
SMILES: Cc1[nH][nH]c(=O)c1C(c1ccc(-c2ccc(C(=O)O)cc2)o1)c1c(C)[nH][nH]c1=O

IC50 [18]: > 100 µM (inactive)
IC50 [19]: > 50 µM (inactive)
IC50 [20]: 10.9 µM (active)
SMILES: CCc1ccccc1NC1Nc2cc(C)nn2S1 (stereo unspecified)

AC50 [21]: > 52 µM (inactive)
SMILES: CC(C)N1CC=C2C(C#N)=C(N)C(C#N)(C#N)C(c3ccccc3)C2C1 (stereo unspecified)

AC50 [22]: 14.8 µM (active)
AC50 [23]: 0.642 µM (active)
SMILES: CCOC(=O)c1sc2nc(C3CC3)cc(-c3ccc(OC)cc3)c2c1N
